Experimental data taken from US20090011975A1, “TARGETED BONE MARROW PROTECTION AGENTS” (Semafore Pharmaceuticals Inc., priority 2003, published 2009).
Like-named read-outs stand apart in the source and are kept apart here.

Legend:
[1] = Reversibility of acyl methylenes in phosphate buffer; format: physicochemical; details: 50 mM phosphate buffer
Protocol: A prodrug strategy was devised using cyclized PFT-β and a structure activity relationship to obtain a prodrug linkage that converts to the native drug with about a 3 day half-life. A key novel intermediate (BI) (the chemical structure of which is set forth in FIG. 22) was generated in greater than 90% yield and >95% purity. […] This allowed preparation of the acyl methylene compounds recited in Table 2. All of the compounds of Table 2 were diluted into 50 mM phosphate buffer at pH=7.4 and pH=4.8 at room temperature and analyzed over time for stability. The amount of PFT-β was quantitated, and the amount of acyl methylene disappearing over time was quantitated by LCMS. A half-life for the cleavage of the acyl methylenes to generate PFT-β under relevant physiological conditions was determined. These half lives are set forth in Table 2 associated with the structures.

[2] = Binding of (BH) to hydroxyapatite and resistance to washing
Protocol: The final conjugate (BH) (see Table 2) was synthesized (assembled) as described and purified by HPLC. […] A 900 μL aliquot of 1.9 mM (BH) in 5 mM phosphate buffer at pH=7 was mixed with 100 μL of an hydroxyapatite suspension (25 weight percent hydroxyapatite; Sigma) containing approximately 25 mg of hydroxyapatite. The suspension was mixed gently for 15 minutes and then centrifuged at 10,000 rpm for one minute. A 100 μL aliquot was removed and analyzed by electrospray LCMS and compared to a standard solution that had not been exposed to hydroxyapatite. […] The supernatant was decanted from the hydroxyapatite solid, an additional 900 μL of de-ionized water was added, and the mix was shaken vigorously for 20 seconds. The suspension was then centrifuged at 10,000 rpm for one minute. A 100 μL aliquot of suspension was removed and analyzed by electrospray LCMS and compared to the standard solution that had not been exposed to hydroxyapatite. […] The supernatant was decanted from the hydroxyapatite solid, an additional 900 μL of de-ionized water was added, and the mix was shaken vigorously for 20 seconds. The suspension was then centrifuged at 10,000 rpm for one minute. A 100 μL aliquot was removed and analyzed by electrospray LCMS and compared to the standard solution. […] Thus, of the original 1.74 μMoles of (BH) present in the supernatant and exposed to the hydroxyapatite, a total of 0.48 μMoles was recovered in the original supernatant plus the two water washes.

[3] = Liberation of PFT-β from hydroxyapatite-bound (BH) over time; format: physicochemical
Protocol: The hydroxyapatite of the suspension was then resuspended in wash number 2 supernatant by pipetting up and down. A 20 μL aliquot of the resulting 900 μL suspension was removed and extracted with methanol. An analysis of the methanol extract by LCMS (versus a standard of (BH)) indicated no detectable (BH) was extractable from the hydroxyapatite sample known to contain the 1.26 μMoles of (BH) described above. […] The suspension was then gently rocked for 34 hours. A 20 μL aliquot was removed and analyzed after extraction with methanol. […] An addition aliquot of the gently mixed suspension was obtained after a total 153 hours contained no detectable, extractable (BH).

[4] = Affinity of bone targeting agents to hydroxyapatite (supernatant LCMS); format: binding; details: 0.100 mM test solution in TBS pH 7.40, HA suspension 1.00 or 10.0 mg/ml, 1 hour (FIG. 25)
Protocol: To determine the affinity of the bone targeting agents to hydroxyapatite, the method described in Willson et al., Biorganic & Medicinal Chemistry Letters, 6(9), 1043-1046 (1996) for determining bone affinity using HPLC retention on a hydroxyapatite column was modified. The affinity of several bone targeting agents was determined using the following method. […] The suspension was diluted to prepare a 1.00 mg/ml HA suspension by stirring on a magnetic stir plate at the slowest speed necessary to create a uniform suspension appropriate for sampling. Each tested compound was dissolved in TBS at a concentration of 0.100 mM. 200 μl of test solution was mixed with 200 μl of TBS, HA at 1.00 mg/ml, or HA at 10.0 mg/ml, and agitated on an orbital shaker at 200 rpm for 1 hour. Each experiment was performed in triplicate. The supernatant solution was analyzed using single ion monitoring (SIM) mass spectral mode on a Shimadzu LCMS-2010 liquid chromatograph-mass spectrometer. The SIM counts in the test compound/TBS solutions were set at 100%. The amount of test compound present in the HA supernatant test solutions was expressed as a percentage of the amount of test compound available with no hydroxyapatite present. Tetracycline was included as a positive control.

[5] = system: C8 cells (mouse embryo fibroblasts transformed with E1a+ras); details: cited from earlier work
[6] = system: p53-null mice; details: PFT-α injections; cited from earlier work
[7] = system: C57BL strain and Balb/c strain mice; details: cited from earlier work
[8] = Conversion of PFT-α to PFT-β in phosphate buffer pH 7.4; format: physicochemical; details: for peak area (254 nm), Phosphate Buffer pH = 7.4 Stability: PFT-α initially 50 μMolar, 37° C.
Protocol: (§1) A 10.0 mMolar solution of PFT-α in DMSO was prepared. A 5 μL aliquot of the solution was diluted with 495 μL of methanol, and further diluted with 500 μL of acetonitrile to produce a comparison standard 50 μMolar solution. Five 5 μL aliquots of 10.0 mMolar solution of PFT-α in DMSO was added to each of five plastic vials containing 495 μL of human serum (Sigma-Aldrich), and the vials were capped. The solution was mixed thoroughly and allowed to stand at 37° C. At different timepoints, each of the 5 vials were removed from heat, cooled to room temperature, and the solution was diluted with 500 μL of acetonitrile to precipitate proteins and nondesirable solutes. Each mixture was vortexed vigorously, passed through a 0.2 um Whatman Uniprep sample filter device, and analyzed by LC-MS (the methods of which are described in Example 12). The UV areas for the peak corresponding to PFT-α (retention time=1.8 minutes) and for the peak corresponding to PFT-β (retention time=3.9 minutes) were tabulated.
The method set forth above was repeated wherein 50 mMolar phosphate buffer (pH=7.4) was substituted for human serum.

[9] = Conversion of PFT-α to PFT-β in human serum; format: in vitro ADME; details: for peak area (254 nm), Human Serum Stability: PFT-α initially 50 μMolar, 37° C.
Protocol: as §1

[10] = Aqueous solubility; format: physicochemical
[11] = system: p53-mediated transcription; assay: p53-mediated transcription, MASPIN promoter-luciferase in HBECs; format: cell-based, human; details: PFT-β liberated from (BH) on hydroxyapatite, HBECs transfected with wild type p53 plasmid (FIG. 27)
Protocol: The binding to hydroxyapatite to the bone targeted prodrug (BH) and its conversion over time to liberate PFT-β was described in Example 10. The PFT-β liberated (5.11 millimolar solution from Example 10) was assayed for its biological activity by evaluating the degree of p53-mediated transcription in the presence and absence of the liberated PFT-β. The assay comprised transiently transfecting human brain endothelial cells (HBECs) with a plasmid comprising the MASPIN promoter, which contains two p53 binding sites, operably linked to the luciferase gene. A group of HBECs was transiently transfected with a plasmid encoding wild type p53. Thus, if p53 produced in the transfected HBECs is active, transcription of the luciferase gene will be activated and the produced luciferase detected. p53-mediated transcription is measured relative to the internal control plasmid pCMVβ-galactosidase to control for transfection efficiency.
The results of the assay are set forth in the bar graph of FIG. 27, the data of which represents fold induction of p53-specific transcriptional activity in HBECs. Column 1 of FIG. 27 represents a negative control resulting from HBECs not transfected with the wild type p53 plasmid. Column 2 of FIG. 27 represents data obtained from HBECs transfected with the wild type p53 plasmid which were not exposed to PFT-β. […]

[12] = pH 4.8, room temperature, read-out: Half Life pH = 4.8
[13] = pH 7.4, room temperature, read-out: Half Life pH = 7.4 (converted)

| half-life at 100 µM [1, 12] | half-life at 100 µM [1, 13] | Molecule | affinity to hydroxyapatite [4] | peak area (254 nm), Phosphate Buffer pH = 7.4 Stability ([8]; 0 hours) | peak area (254 nm), Phosphate Buffer pH = 7.4 Stability ([8]; 1.5 hours) | peak area (254 nm), Phosphate Buffer pH = 7.4 Stability ([8]; 3 hours) | peak area (254 nm), Phosphate Buffer pH = 7.4 Stability ([8]; 4.5 hours) | peak area (254 nm), Phosphate Buffer pH = 7.4 Stability ([8]; 17 hours) | peak area (254 nm), Human Serum Stability ([9]; 0 hours) | peak area (254 nm), Human Serum Stability ([9]; 1.5 hours) | peak area (254 nm), Human Serum Stability ([9]; 3 hours) | peak area (254 nm), Human Serum Stability ([9]; 4.5 hours) | peak area (254 nm), Human Serum Stability ([9]; 17 hours) | further results |
| --- | --- | --- | --- | --- | --- | --- | --- | --- | --- | --- | --- | --- | --- | --- |
| > 20.8 days | > 20.8 days | CC(=O)OC[n+]1c(-c2ccc(C)cc2)cn2c3c(sc21)CCCC3 [BG] | – | – | – | – | – | – | – | – | – | – | – | – |
| > 20.8 days | 3.23 days | Cc1ccc(-c2cn3c4c(sc3[n+]2COC(=O)c2ccc(CN(CP(=O)(O)O)CP(=O)(O)O)cc2)CCCC4)cc1 [BH] | almost identical to that of (BC) | – | – | – | – | – | – | – | – | – | – | originally present (BH) bound to the hydroxyapatite solid ([2]; 1.9 mM in 5 mM phosphate buffer pH 7, approx. 25 mg hydroxyapatite, 15 minutes): 77%; originally present (BH) in the supernatant, wash number 1 ([2]; 900 μL de-ionized water wash 1): 3.5%; originally present (BH) in the supernatant, wash number 2 ([2]; 900 μL de-ionized water wash 2): 0.6%; (BH) remained in the supernatant solution ([2]; after 15 minutes with hydroxyapatite): 23%; (BH) adsorbed to the hydroxyapatite so as to resist washing off ([2]; of original 1.74 μMoles): 1.26 µmol; total recovered in the original supernatant plus the two water washes ([2]; of original 1.74 μMoles): 0.48 µmol; (BH) extractable with methanol from hydroxyapatite ([3]; 34 hours): no detectable; prodrug cleavage product PFT-β, percent of the 1.26 μMoles sorbed ([3]; 34 hours): 19.6%; (BH) extractable with methanol from hydroxyapatite ([3]; 105 hours): no detectable; prodrug cleavage product PFT-β, percent of the 1.26 μMoles sorbed ([3]; 105 hours): 29.1%; (BH) extractable with methanol from hydroxyapatite ([3]; 153 hours): no detectable; prodrug cleavage product PFT-β, percent of the 1.26 μMoles sorbed ([3]; 153 hours): 37.5%; (BH) extractable with methanol from hydroxyapatite ([3]; start, after washes): no detectable; prodrug cleavage product PFT-β, percent of the 1.26 μMoles sorbed ([3]; start, after washes): < 7% |
| – | – | Cc1ccc(C(=O)Cn2c3c(sc2=N)CCCC3)cc1 [PFT-α, 2-[2-imino-4,5,6,7-tetrahydro-1,3-benzothiazol-3(2H)-yl]-1-(4-methylphenyl)-1-ethanone] | – | 584109 | 448284 | 303800 | 227004 | 18724 | 547169 | 312351 | 156823 | 118842 | 7927 | inhibition of apoptosis induced by doxorubicin, etoposide, paclitaxel, cytosine arabinoside, UV light, and gamma radiation ([5]; 10 micromolar concentration): inhibited apoptosis; protection on pretreatment of cells and removal of the compound before the stress-inducing event ([5]; pretreatment, compound removed before stress): no significant protection; protective effect in p53-null mice treated with radiation [6]: no protective effect; tumors or pathological lesions in gamma-irradiated survivors ([7]; 7 months post-irradiation): No tumors or pathological lesions; rescue from 60% killing doses of gamma radiation ([7]; single intraperitoneal injection 2.2 mg/kg, 8 Gy C57BL, 6 Gy Balb/c): completely rescued; weight-loss versus controls ([7]; treated irradiated animals): less weight-loss than controls; time in which half of PFT-α is converted to PFT-β ([8]; phosphate buffer, initial 50 μMolar): about 1.8 hours; time in which half of PFT-α is converted to PFT-β ([9]; human serum, initial 50 μMolar): about 3 hours |
| – | – | Cc1ccc(-c2cn3c4c(sc3n2)CCCC4)cc1 [PFT-β, 2-p-Tolyl-5,6,7,8-tetrahydro-benzo[d]imidazo[2,1-b]thiazole] | – | 13032 | 176201 | 307793 | 427152 | 601840 | 13781 | 259004 | 448826 | 512198 | 696098 | aqueous solubility [10]: about 3 μMolar; biological activity (inhibition of p53-mediated transcription) [11]: biologically active |
| – | – | Phenyphosphonic acid [BK] | no observable affinity | – | – | – | – | – | – | – | – | – | – | – |
